Experimental data published in publication PMC12751025, “α‑Aminoboronic Acid Moieties in Boro Dipeptides Modulate Proteasome Subunit Selectivity and Provide Access to Compounds with Potent Anticancer and Anti-Inflammatory Activity” (Journal of Medicinal Chemistry, 2025).
pIC50: −log10 of the molar value.

What was measured:
β2c subunit of human cCP = molecular target: T1, β2c subunit of human cCP (Homo sapiens, UniProt P49720+Q99436); test: IC50 determination with fluorogenic substrate Ac-RLR-AMC (PA28β added); format: biochemical; settings: human cCP; mean of at least three experiments; NA: not active at 50 μM
T1 construct: purchased Boston Biochem, Inc
Experimental: Stock solutions of the compounds were prepared in DMSO. To the 35 μL of solution of the compound in the buffer, 35 μL of 0.4 nM human iCP (South Bay Bio, San Jose, CA, USA) or human cCP (Boston Biochem, Inc., Cambridge, MA, USA) was added. For assays evaluating the activity of β2c and β2i, the buffer was modified by adding the proteasomal activator PA28β (Boston Biochem, Inc., Cambridge, MA, USA) at a final concentration of 6 nM. […] The substrates used were acetyl-Nle-Pro-Nle-Asp-7-amino-4-methylcoumarin (Ac-nLPnLD-AMC, Bachem, Bubendorf, Switzerland) for β1c, acetyl-Pro-Ala-Leu-7-amino-4-methylcoumarin (Ac-PAL-AMC, Boston Biochem, Inc., Cambridge, MA, USA) for β1i, acetyl-Arg-Leu-Arg-7-amino-4-methylcoumarin (Ac-RLR-AMC, Bachem, Bubendorf, Switzerland) for β2c and β2i, acetyl-Trp-Leu-Ala-7-amino-4-methylcoumarin (Ac-WLA-AMC, Bachem, Bubendorf, Switzerland) for β5c, and acetyl-Ala-Asn-Trp-7-amino-4-methylcoumarin (Ac-ANW-AMC, Bachem, Bubendorf, Switzerland) for β5i. Progress of the reaction was measured using a BioTek Synergy HT microplate reader, monitoring fluorescence at 460 nm (excitation at 360 nm) for 60 min at 37 °C. The initial linear ranges were used to calculate the reaction velocity and determine the residual activity.
(§1) The final assay mixtures contained 0.4 nM human iCP or cCP in assay buffer (50 mM Tris-HCl, 0.5 mM EDTA, pH 7.4, addition of PA28β for β2c and β2i subunits). […] After incubation at 37 °C for 30 min, the reaction was initiated by the addition of the substrate Ac-nLPnLD-AMC for β1c, Ac-PAL-AMC for β1i, Ac-RLR-AMC for β2c and β2i, Ac-WLA-AMC for β5c, and Ac-ANW-AMC for β5i. Fluorescence was monitored at 460 nm (excitation at 360 nm) for 60 min at 37 °C. The reaction progress was recorded and the initial linear phases were used to determine the velocity. The IC50 values were calculated using GraphPad Prism software (GraphPad Software, San Diego, CA, USA), and the results represent the mean values of at least three independent determinations.

β1c subunit of human cCP = molecular target: T2, β1c subunit of human cCP (Homo sapiens, UniProt P28072+Q99436); test: IC50 determination with subunit-specific fluorogenic substrate Ac-nLPnLD-AMC; format: biochemical; settings: human cCP; mean of at least three experiments; NA: not active at 50 μM
T2 construct: purchased Boston Biochem, Inc
Experimental: (§2) The measurements of the residual activity of control compounds were carried out at final compound concentrations of 1 μM in the assay buffer (50 mM Tris-HCl, 0.5 mM ethylenediaminetetraacetic acid (EDTA), pH 7.4). Stock solutions of the compounds were prepared in DMSO. To the 35 μL of solution of the compound in the buffer, 35 μL of 0.4 nM human iCP (South Bay Bio, San Jose, CA, USA) or human cCP (Boston Biochem, Inc., Cambridge, MA, USA) was added. For assays evaluating the activity of β2c and β2i, the buffer was modified by adding the proteasomal activator PA28β (Boston Biochem, Inc., Cambridge, MA, USA) at a final concentration of 6 nM. […] The substrates used were acetyl-Nle-Pro-Nle-Asp-7-amino-4-methylcoumarin (Ac-nLPnLD-AMC, Bachem, Bubendorf, Switzerland) for β1c, acetyl-Pro-Ala-Leu-7-amino-4-methylcoumarin (Ac-PAL-AMC, Boston Biochem, Inc., Cambridge, MA, USA) for β1i, acetyl-Arg-Leu-Arg-7-amino-4-methylcoumarin (Ac-RLR-AMC, Bachem, Bubendorf, Switzerland) for β2c and β2i, acetyl-Trp-Leu-Ala-7-amino-4-methylcoumarin (Ac-WLA-AMC, Bachem, Bubendorf, Switzerland) for β5c, and acetyl-Ala-Asn-Trp-7-amino-4-methylcoumarin (Ac-ANW-AMC, Bachem, Bubendorf, Switzerland) for β5i. Progress of the reaction was measured using a BioTek Synergy HT microplate reader, monitoring fluorescence at 460 nm (excitation at 360 nm) for 60 min at 37 °C. The initial linear ranges were used to calculate the reaction velocity and determine the residual activity.
as §1

β5c subunit of human cCP = molecular target: T3, β5c subunit of human cCP (Homo sapiens, UniProt P20618+P28074); test: IC50 determination with fluorogenic substrate Ac-WLA-AMC; format: biochemical; settings: human cCP; mean of at least three experiments; NA: not active at 50 μM
T3 construct: purchased Boston Biochem, Inc
Experimental: as §2, §1

β2i subunit of human iCP = β2i subunit of human iCP (Homo sapiens, UniProt P40306+P49720); test: IC50 determination with fluorogenic substrate Ac-RLR-AMC (PA28β added)
Experimental: as §2, §1

β5i subunit of human iCP = β5i subunit of human iCP (Homo sapiens, UniProt P20618+P28062); test: IC50 determination with fluorogenic substrate Ac-ANW-AMC; settings: IC50 β5i, human iCP; mean of at least three experiments; NA: not active at 50 μM
Experimental: as §2, §1

[1] = Human plasma protein binding, equilibrium dialysis; format: in vitro ADME; settings: for % of bound compound: human plasma, 1 μM, dialysis 5 h; for recovery at 5 h, 1 µM: human, pH 7.4; for recovery at 5 h, 1 µM / Stability [%]: plasma protein binding assay
Experimental: Human plasma protein binding
The assay was performed in a multiple-use 96-well dialysis unit (HTD96b dialyzer). Each individual well unit consisted of two chambers separated by a vertically aligned dialysis membrane of predetermined pore size (MWCO 14 kDa). 125 µL of non-diluted plasma spiked with the compound (1 μM, final DMSO and acetonitrile concentration was 0.005% and 1%, respectively) was added to one chamber and the same volume of PBS buffer pH 7.4 to the other chamber. HTD96b dialyzer was incubated with shaking (250 rpm) at 37 °C, 5% CO2, and a saturating humidity (~95%) for 5 h. For samples preparation, an aliquot of the content of each chamber had been mixed with the same volume of the blank opposite matrix. In order to define non-specific loss of the compound during this assay, standard solution was created by mixing an aliquot of spiked plasma with blank buffer without dialysis. Two aliquots of the standard solution were incubated with shaking (250 rpm) at 37 °C, 5% CO2, and a saturating humidity (~95%) for 5 h (recovery samples). The other two aliquots were immediately diluted with acetonitrile and stored at 4 °C until LC-MS/MS analysis (stability samples). All samples were diluted 5-fold with 90% acetonitrile with internal standard with subsequent plasma proteins sedimentation by centrifuging at 6000 rpm for 5 min. Supernatants were analyzed using HPLC system coupled with tandem mass spectrometer. […]

[2] = Gastrointestinal tract parallel artificial membrane permeability (PAMPA) assay; format: in vitro ADME; settings: GIT PAMPA; for Permeability, Log10 [cm/s]: pH 7.4, 50 μM, 4 hours; for Papp at 4 h, 50 μM: pH 7.4, read-out: Pe
Experimental: Gastrointestinal tract parallel artificial membrane permeability (PAMPA) assay All steps of the PAMPA were carried out according to the pION Inc. PAMPA Explorer™ Manual. The main principle of the assay is the incubation of the compound in the donor chamber (a well in the Donor Plate) with an aqueous buffer, which is separated from the acceptor chamber (a well in the Acceptor Plate) with another buffer by a phospholipid or hydrocarbon membrane fixed on a filter support. After the test, concentrations in the corresponding donor and acceptor wells are measured, and permeability is calculated. The GIT model was simulated using the GIT-0 phospholipid mix.
Verapamil, quinidine (high permeability), and ranitidine (low permeability) were used as reference […]
All compounds were tested in triplicate. Prisma HT buffer (pH 7.4) containing 50 μM test compounds (0.5% DMSO) was added to the Donor Plate wells. Acceptor Sink Buffer was added to each well of the Acceptor Plate. Incubation was done at room temperature for 4 hours without stirring. After […]
incubation, aliquots from both plates were transferred to optic UV-Vis plates, and optic plates were read on a microplate reader in absorbance mode in the range of 230-550 nm with a 4 nm step. Then, the apparent permeability coefficient was calculated. […]
In order to define non-specific loss of the compound during this assay, standard solution was created by mixing an aliquot of spiked plasma with blank buffer without dialysis. Two aliquots of the standard solution were incubated with shaking (250 rpm) at 37 °C, 5% CO2, and a saturating humidity (~95%) for 5 h (recovery samples). The other two aliquots were immediately diluted with acetonitrile and stored at 4 °C until LC-MS/MS analysis (stability samples). All samples were diluted 5-fold with 90% acetonitrile with internal standard with subsequent plasma proteins sedimentation by centrifuging at 6000 rpm for 5 min. Supernatants were analyzed using HPLC system coupled with tandem mass spectrometer. Verapamil was used as a reference compound to control proper assay […]
Bortezomib and its analogs are known to exist as the free boronic acid as well as dimeric and trimeric boronic anhydrides. These forms interconvert rapidly in solution and are indistinguishable by routine […]
activity of such compounds. On UHPLC, the interconverting boronic species were not chromatographically resolved; however, diastereomers were at least partially separated, yielding two distinct chromatographic signals with identical mass spectra. By contrast, the bortezomib reference standard produced a single chromatographic signal, consistent with its pure enantiomeric form (see

β1i subunit of human iCP = β1i subunit of human iCP (Homo sapiens, UniProt P28065+P40306); test: IC50 determination with subunit-specific fluorogenic substrate Ac-PAL-AMC; settings: IC50 β1i, human iCP; mean of at least three experiments; NA: not active at 50 μM
Experimental: as §2, §1

[3] = tested on: human umbilical vein endothelial cells; test: Cytotoxicity MTS assay; format: cell-based; settings: 10, 50 and 250 nM, 72 h, MTS (Figure S2)
Experimental: Cytotoxicity was determined using the MTS cell proliferation assay (CellTiter 96 AQueous One Solution Cell Proliferation Assay, Promega, Wisconsin, USA), which measures mitochondrial metabolic activity as a surrogate for cell viability. The assay was performed according to the manufacturer protocol. The cytotoxicity was performed on HepG2, MCF-7, MDA-MB-231, MOLT-4, MM.1S, THP-1, RAJI cell lines and on HUVECs as well as PBMCs. The cells were seeded in 96-well plates (15.000–30.000 cells/well). After 24 h incubation at 5% CO2 and 37 °C, the cells were treated either with DMSO (negative control) or solutions of the tested compounds in DMSO. After 24 or 72 h, MTS reagent was added. Cells were incubated for additional 2 h - 4 h, followed by the measurement of absorbance at 490 nm on the Tecan Spark microplate reader.

PBMCs = test: Cytotoxicity MTS assay; format: cell-based, human; settings: 10, 50 and 250 nM, 24 h, MTS (Figure S1)
Experimental: Buffy coats from venous blood of anonymized healthy donors were purchased from Blood Transfusion Centre of Slovenia. PBMCs were isolated by density gradient centrifugation with Ficoll-Paque (Pharmacia, Sweden). The isolated cells were resuspended in RPMI 1640 medium (Sigma-Aldrich, St. Louis/MO, United States) supplemented with 10% heat-inactivated FBS (Gibco, ThermoFisher Scientific, Waltham/MA, United States), 2 mM L-glutamine (Sigma-Aldrich, St. Louis/MO, United States), 100 U/mL penicillin (Sigma-Aldrich, St. Louis/MO, United States), and 100 μg/mL streptomycin (Sigma-Aldrich, St. Louis/MO, United States).
Cytotoxicity was determined using the MTS cell proliferation assay (CellTiter 96 AQueous One Solution Cell Proliferation Assay, Promega, Wisconsin, USA), which measures mitochondrial metabolic activity as a surrogate for cell viability. The assay was performed according to the manufacturer protocol. The cytotoxicity was performed on HepG2, MCF-7, MDA-MB-231, MOLT-4, MM.1S, THP-1, RAJI cell lines and on HUVECs as well as PBMCs. The cells were seeded in 96-well plates (15.000–30.000 cells/well). After 24 h incubation at 5% CO2 and 37 °C, the cells were treated either with DMSO (negative control) or solutions of the tested compounds in DMSO. […] Cells were incubated for additional 2 h - 4 h, followed by the measurement of absorbance at 490 nm on the Tecan Spark microplate reader.

Row | pIC50 (β2c subunit of human cCP) | pIC50 (β1c subunit of human cCP) | pIC50 (β5c subunit of human cCP) | pIC50 (β2i subunit of human iCP) | pIC50 (β5i subunit of human iCP) | % of bound compound [1] | recovery at 5 h, 1 µM [1] | Stability [%] [1] | Pe [2] | Permeability, Log10 [cm/s] [2] | Papp at 4 h, 50 μM [2] | pIC50 (β1i subunit of human iCP) | SMILES | cytotoxic effect on human umbilical vein endothelial cells [3] | cytotoxic effect on PBMCs (PBMCs)
1 | 4.43 | 7.74 | 7.36 | 6.00 | 7.24 | 91% | 93% | 86% | 15.8 ×10⁻⁶ cm/s | -4.8 ± 0.06 Log10 [cm/s] | 15.8 ×10⁻⁶ cm/s | 8.52 | O=C(N[C@@H](Cc1ccccc1)C(=O)N[C@H](B(O)O)C1CCCC1)c1cnccn1 [5l, ((R)-Cyclopentyl((S)-3-phenyl-2-(pyrazine-2-carboxamido)propanamido)methyl)boronic Acid] |  | 
2 |  |  |  |  |  | 93% | 100% | 92% | 15.8 ×10⁻⁶ cm/s | -4.8 ± 0.02 Log10 [cm/s] | 15.8 ×10⁻⁶ cm/s |  | CC(C)C[C@H](NC(=O)[C@H](Cc1ccccc1)NC(=O)c1cnccn1)B(O)O [bortezomib, reference compound] | more cytotoxic | more cytotoxic
